Drawing on the kinase profiling compilation of Christmann-Franck et al. (2016), this text covers residual activity for 4 compounds.

Targets include CDK2 CCNA2 (human) (UniProt P24941+P20248); CDK2 CCNE1 (human) (UniProt P24941+P24864); CDK3 CCNE1 (human) (UniProt Q00526+P24864); DYRK1B (human) (UniProt Q9Y463); CDK5 CDK5R1 p25 (human) (UniProt Q00535+Q15078); CDK1 CCNA2 (human) (UniProt P06493+P20248); AURKC (human) (UniProt Q9UQB9); CDK9 CCNT1 (human) (UniProt P50750+O60563); CDK6 CCND1 (human) (UniProt Q00534+P24385); CDK4 CCND3 (human) (UniProt P30281+P11802); FLT3 (human) (UniProt P36888); CDK9 CCNK (human) (UniProt O75909+P50750); CDK7 CCNH MNAT1 (human) (UniProt P50613+P51948+P51946); CDK6 CCND3 (human) (UniProt P30281+Q00534); CDK4 CCND1 (human) (UniProt P24385+P11802); CDK5 CDK5R1 p35 (human) (UniProt Q00535+Q15078); CDK1 CCNB1 (human) (UniProt P06493+P14635); STK33 (human) (UniProt Q9BYT3); MAP3K7 TAB1 (human) (UniProt O43318+Q15750); AURKB (human) (UniProt Q96GD4); PRKCH (human) (UniProt P24723); LTK (human) (UniProt P29376); NEK7 (human) (UniProt Q8TDX7); NEK6 (human) (UniProt Q9HC98).

Assay in all cases: radiometric filter-binding kinase assay, Kinase HotSpot
Holding throughout (conditions): compound 0.5 µM; ATP 10 µM

The term residual activity denotes the signal under treatment as a percentage of the control signal.

Sequence of CDK3 CCNE1 (human) (P24864 whole entry, looked up): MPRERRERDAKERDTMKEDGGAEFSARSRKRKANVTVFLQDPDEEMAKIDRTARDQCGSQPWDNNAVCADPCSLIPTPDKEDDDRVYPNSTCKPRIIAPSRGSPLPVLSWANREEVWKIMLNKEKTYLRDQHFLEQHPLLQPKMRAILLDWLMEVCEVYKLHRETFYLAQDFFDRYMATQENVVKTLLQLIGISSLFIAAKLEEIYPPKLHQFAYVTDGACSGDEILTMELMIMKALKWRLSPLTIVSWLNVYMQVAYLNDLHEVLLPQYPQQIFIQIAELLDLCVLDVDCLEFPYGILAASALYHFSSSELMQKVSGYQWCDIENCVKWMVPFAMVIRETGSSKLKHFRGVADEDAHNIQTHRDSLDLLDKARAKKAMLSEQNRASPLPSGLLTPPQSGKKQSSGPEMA
Sequence of CDK3 CCNE1 (human) (Q00526 whole entry, looked up): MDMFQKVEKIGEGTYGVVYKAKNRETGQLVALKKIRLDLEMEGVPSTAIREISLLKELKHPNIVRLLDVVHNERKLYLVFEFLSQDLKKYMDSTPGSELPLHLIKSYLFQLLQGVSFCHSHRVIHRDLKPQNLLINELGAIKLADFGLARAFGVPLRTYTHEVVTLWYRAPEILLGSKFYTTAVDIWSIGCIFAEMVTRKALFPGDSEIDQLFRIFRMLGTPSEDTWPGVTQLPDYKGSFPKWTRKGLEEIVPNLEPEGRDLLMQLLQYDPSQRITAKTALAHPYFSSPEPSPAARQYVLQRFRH
Sequence of CDK2 CCNE1 (human) (P24864 whole entry, looked up, other chains not shown): as the sequence (P24864 whole entry, looked up) above
Sequence of CDK9 CCNK (human) (O75909 whole entry, looked up): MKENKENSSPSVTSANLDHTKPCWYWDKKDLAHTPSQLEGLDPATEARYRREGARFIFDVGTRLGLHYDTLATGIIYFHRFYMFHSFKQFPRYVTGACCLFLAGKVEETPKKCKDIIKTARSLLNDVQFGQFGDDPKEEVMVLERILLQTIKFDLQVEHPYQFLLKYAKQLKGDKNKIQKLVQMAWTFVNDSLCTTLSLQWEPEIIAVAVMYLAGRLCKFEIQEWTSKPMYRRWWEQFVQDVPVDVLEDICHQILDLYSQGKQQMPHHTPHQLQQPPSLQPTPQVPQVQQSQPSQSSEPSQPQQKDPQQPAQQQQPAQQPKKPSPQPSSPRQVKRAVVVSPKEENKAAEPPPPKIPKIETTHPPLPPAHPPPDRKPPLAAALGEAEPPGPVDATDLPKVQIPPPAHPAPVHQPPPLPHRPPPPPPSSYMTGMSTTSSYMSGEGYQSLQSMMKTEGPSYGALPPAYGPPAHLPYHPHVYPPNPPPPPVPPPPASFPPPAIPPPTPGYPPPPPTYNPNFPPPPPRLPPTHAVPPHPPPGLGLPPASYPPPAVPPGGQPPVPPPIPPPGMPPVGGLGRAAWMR
Sequence of CDK9 CCNK (human) (P50750 whole entry, looked up): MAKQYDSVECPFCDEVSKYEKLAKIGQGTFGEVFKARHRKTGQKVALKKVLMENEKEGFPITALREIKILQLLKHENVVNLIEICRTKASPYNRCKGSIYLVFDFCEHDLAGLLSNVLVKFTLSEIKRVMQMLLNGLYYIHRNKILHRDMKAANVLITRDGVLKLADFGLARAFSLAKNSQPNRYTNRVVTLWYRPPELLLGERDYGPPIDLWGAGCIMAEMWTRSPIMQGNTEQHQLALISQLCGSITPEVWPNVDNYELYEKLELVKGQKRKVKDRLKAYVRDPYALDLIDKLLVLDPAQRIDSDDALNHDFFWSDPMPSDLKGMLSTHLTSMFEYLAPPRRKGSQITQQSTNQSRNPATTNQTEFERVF
Sequence of MAP3K7 TAB1 (human) (O43318 whole entry, looked up): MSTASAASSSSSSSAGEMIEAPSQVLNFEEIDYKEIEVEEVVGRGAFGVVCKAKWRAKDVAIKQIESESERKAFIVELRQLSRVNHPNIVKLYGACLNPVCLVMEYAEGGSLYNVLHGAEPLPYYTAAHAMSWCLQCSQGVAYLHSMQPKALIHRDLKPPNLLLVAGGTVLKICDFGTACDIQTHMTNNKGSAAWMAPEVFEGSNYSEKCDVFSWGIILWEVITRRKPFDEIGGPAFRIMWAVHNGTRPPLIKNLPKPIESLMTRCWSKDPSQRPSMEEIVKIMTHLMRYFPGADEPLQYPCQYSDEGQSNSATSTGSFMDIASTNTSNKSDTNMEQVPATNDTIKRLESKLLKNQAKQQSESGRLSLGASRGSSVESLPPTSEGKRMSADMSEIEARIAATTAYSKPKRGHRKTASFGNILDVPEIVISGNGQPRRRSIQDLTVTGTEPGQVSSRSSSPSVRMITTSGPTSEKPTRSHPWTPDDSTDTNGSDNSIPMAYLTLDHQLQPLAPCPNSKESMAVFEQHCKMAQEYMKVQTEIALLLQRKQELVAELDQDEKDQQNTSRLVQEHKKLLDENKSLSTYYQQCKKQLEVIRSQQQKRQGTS
Sequence of MAP3K7 TAB1 (human) (Q15750 whole entry, looked up): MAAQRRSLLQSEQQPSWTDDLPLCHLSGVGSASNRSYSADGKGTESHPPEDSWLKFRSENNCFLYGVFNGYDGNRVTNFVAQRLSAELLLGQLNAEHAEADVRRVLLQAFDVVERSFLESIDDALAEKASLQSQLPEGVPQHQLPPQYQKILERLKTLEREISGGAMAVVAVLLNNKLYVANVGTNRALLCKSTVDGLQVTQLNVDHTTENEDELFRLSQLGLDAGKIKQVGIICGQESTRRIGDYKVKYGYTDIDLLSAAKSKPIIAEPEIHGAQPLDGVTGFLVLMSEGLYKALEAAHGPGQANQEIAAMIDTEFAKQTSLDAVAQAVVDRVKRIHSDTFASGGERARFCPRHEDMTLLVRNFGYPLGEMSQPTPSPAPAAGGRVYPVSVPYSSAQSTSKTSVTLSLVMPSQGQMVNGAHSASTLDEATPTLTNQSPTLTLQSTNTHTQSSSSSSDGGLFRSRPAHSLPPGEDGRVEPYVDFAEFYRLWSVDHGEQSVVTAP
Sequence of CDK5 CDK5R1 p25 (human) (Q00535 whole entry, looked up): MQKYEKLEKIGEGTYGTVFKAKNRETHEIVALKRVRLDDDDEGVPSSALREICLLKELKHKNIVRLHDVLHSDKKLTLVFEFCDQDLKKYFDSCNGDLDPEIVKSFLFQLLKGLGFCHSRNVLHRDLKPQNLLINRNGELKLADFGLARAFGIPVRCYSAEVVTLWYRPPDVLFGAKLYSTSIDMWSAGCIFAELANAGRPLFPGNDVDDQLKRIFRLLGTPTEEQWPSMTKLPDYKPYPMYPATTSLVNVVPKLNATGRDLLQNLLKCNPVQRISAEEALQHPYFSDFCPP
Sequence of CDK5 CDK5R1 p25 (human) (Q15078 whole entry, looked up): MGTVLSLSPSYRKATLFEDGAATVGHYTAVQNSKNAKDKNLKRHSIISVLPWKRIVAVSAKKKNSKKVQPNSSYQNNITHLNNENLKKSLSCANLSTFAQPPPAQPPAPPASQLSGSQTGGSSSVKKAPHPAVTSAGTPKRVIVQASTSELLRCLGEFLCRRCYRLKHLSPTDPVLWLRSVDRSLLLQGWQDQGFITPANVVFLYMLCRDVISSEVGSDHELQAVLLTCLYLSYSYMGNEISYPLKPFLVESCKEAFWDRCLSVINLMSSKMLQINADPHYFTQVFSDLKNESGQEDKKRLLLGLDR
Sequence of CDK7 CCNH MNAT1 (human) (P50613 whole entry, looked up): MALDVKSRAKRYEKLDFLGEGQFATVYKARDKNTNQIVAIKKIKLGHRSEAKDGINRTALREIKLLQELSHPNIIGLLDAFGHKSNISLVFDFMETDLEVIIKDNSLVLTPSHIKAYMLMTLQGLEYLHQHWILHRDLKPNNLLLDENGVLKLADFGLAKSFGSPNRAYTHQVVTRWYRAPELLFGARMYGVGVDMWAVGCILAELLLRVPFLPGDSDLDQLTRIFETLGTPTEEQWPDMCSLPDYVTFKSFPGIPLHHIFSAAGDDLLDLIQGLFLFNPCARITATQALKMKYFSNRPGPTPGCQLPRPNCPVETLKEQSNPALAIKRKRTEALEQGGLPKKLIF
Sequence of CDK7 CCNH MNAT1 (human) (P51946 whole entry, looked up): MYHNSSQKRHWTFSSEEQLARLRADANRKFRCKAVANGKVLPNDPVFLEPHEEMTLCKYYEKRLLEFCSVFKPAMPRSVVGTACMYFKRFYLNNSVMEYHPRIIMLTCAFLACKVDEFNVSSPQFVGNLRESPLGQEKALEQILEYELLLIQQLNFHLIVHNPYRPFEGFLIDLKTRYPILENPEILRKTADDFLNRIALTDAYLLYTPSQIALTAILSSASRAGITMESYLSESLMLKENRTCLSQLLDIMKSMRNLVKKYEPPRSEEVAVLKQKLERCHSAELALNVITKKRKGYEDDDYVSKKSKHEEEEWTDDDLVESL
Sequence of CDK7 CCNH MNAT1 (human) (P51948 whole entry, looked up): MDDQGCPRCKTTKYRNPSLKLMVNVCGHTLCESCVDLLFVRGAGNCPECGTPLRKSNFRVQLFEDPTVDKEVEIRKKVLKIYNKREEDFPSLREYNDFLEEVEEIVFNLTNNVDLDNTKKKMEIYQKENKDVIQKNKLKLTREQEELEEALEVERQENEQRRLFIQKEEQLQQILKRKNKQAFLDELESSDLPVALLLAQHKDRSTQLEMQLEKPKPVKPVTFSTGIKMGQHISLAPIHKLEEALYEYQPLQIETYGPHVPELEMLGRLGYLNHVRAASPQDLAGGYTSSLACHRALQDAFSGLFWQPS
Sequence of CDK2 CCNA2 (human) (P20248 whole entry, looked up, other chains not shown): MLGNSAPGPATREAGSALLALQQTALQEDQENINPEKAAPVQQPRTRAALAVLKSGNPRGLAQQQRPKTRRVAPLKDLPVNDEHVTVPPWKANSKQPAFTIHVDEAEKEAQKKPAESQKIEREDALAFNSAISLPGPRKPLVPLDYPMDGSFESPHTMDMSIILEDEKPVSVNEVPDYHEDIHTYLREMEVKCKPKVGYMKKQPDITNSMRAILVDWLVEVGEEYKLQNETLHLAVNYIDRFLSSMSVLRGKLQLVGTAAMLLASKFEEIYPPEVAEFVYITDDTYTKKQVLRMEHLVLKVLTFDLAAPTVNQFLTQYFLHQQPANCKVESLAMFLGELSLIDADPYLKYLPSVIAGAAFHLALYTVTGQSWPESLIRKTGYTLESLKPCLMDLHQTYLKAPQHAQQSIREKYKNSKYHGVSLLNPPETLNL

Turning to `Cc1cc(Nc2cc(N3CCN(C)CC3)nc(Sc3ccc(NC(=O)C4CC4)cc3)n2)[nH]n1`, the residual activity on CDK2 CCNA2 (human) is 87.8%; on CDK2 CCNE1 (human) it was 94.4%; on CDK3 CCNE1 (human) it was 95.3%; on DYRK1B (human) it was 98.8%; on CDK5 CDK5R1 p25 (human), 93.8%; at CDK1 CCNA2 (human), 99.1%. Further, the residual activity at AURKC (human) was determined as 40.4%; at CDK9 CCNT1 (human) it was 93.1%; at CDK6 CCND1 (human) it was 95.2%; at CDK4 CCND3 (human) it was 99.2%; on FLT3 (human), 6.67%; at CDK9 CCNK (human), 102%. Also, the residual activity on CDK7 CCNH MNAT1 (human) worked out at 101%; at CDK6 CCND3 (human), 121%; at CDK4 CCND1 (human) it was 97.4%; on CDK5 CDK5R1 p35 (human), 100%; on CDK1 CCNB1 (human), 102%; at STK33 (human) it was 90.1%. Also, the residual activity on MAP3K7 TAB1 (human) worked out at 90.7%; at AURKB (human), 4.89%; on PRKCH (human), 111%; on LTK (human), 84.2%.
For the compound `NC(=O)c1ccc(-c2nc(-c3ccccn3)c(-c3ccc4c(c3)OCCO4)[nH]2)cc1`, the residual activity on CDK2 CCNA2 (human) stood at 95%; at CDK2 CCNE1 (human), 93.5%; at CDK3 CCNE1 (human) it was 99.4%; at DYRK1B (human), 100%; at CDK5 CDK5R1 p25 (human) it was 91%; on CDK1 CCNA2 (human), 97.1%. The residual activity on CDK9 CCNT1 (human) amounted to 96.8%; at CDK6 CCND1 (human), 106%; on CDK4 CCND3 (human), 94.1%; on CDK9 CCNK (human), 97.1%; on CDK7 CCNH MNAT1 (human), 97.6%; at CDK6 CCND3 (human), 104%. Besides, the residual activity worked out at 84% at CDK4 CCND1 (human); 98% on CDK5 CDK5R1 p35 (human); 83.9% at CDK1 CCNB1 (human); 98.3% on STK33 (human); 104% at MAP3K7 TAB1 (human); 83.3% at PRKCH (human). In addition, the residual activity at LTK (human) turned out to be 93.5%.
For `CCOc1nc(NC(=O)Cc2cc(OC)ccc2OC)cc(N)c1C#N`, the residual activity on CDK2 CCNA2 (human) came to 104%; at CDK2 CCNE1 (human), 88.9%; on CDK3 CCNE1 (human), 97.7%; on DYRK1B (human) it was 99.2%; on CDK5 CDK5R1 p25 (human), 96.8%; on CDK1 CCNA2 (human), 92.2%. For the same compound, the residual activity was 100% on CDK9 CCNT1 (human); 95.2% at CDK6 CCND1 (human); 95.2% at CDK4 CCND3 (human); 89.2% at CDK9 CCNK (human); 103% on CDK7 CCNH MNAT1 (human); 98.6% on CDK6 CCND3 (human). Moreover, the residual activity at CDK4 CCND1 (human) was found to be 97.6%; on CDK5 CDK5R1 p35 (human) it was 105%; on CDK1 CCNB1 (human), 108%; on STK33 (human) it was 97.7%; at MAP3K7 TAB1 (human), 96.6%; at PRKCH (human), 94.3%. Besides, the residual activity at LTK (human) worked out at 97.3%.
In the case of `O=C1Nc2ccc3ncsc3c2/C1=C/c1c[nH]cn1`, the residual activity at NEK7 (human) was 79.6%; at DYRK1B (human), 11.3%; on NEK6 (human), 93.2%; on STK33 (human) it was 35.7%; at PRKCH (human), 41.2%; at LTK (human), 83%.
